From PubChem BioAssay (NCI)
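Abbreviation: GI50, concentration required for 50% inhibition of growth. TGI: concentration producing complete growth inhibition.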

What was measured:
Test in all cases: NCI tumour cell line growth inhibition, 384-well format
[1] = test system: ACHN renal
[2] = test system: MDA-MB-468 breast
[3] = test system: NCI-H322M lung
[4] = test system: HS 578T breast
[5] = test system: SN12C renal
[6] = test system: SK-MEL-28 melanoma
[7] = test system: SNB-19 CNS
[8] = test system: NCI/ADR-RES ovarian
[9] = test system: KM12 colon
[10] = test system: RPMI-8226 leukemia
[11] = test system: HCT-15 colon
[12] = test system: CCRF-CEM leukemia
[13] = test system: A549 NSCLC
[14] = test system: OVCAR-3 ovarian
[15] = test system: NCI-H460 NSCLC
[16] = test system: UACC-62 melanoma
[17] = test system: NCI-H23 lung
[18] = test system: IGROV1 ovarian
[19] = test system: M14 melanoma
[20] = test system: U251 glioblastoma
[21] = test system: SW-620 colon
[22] = test system: HOP-92 NSCLC
[23] = test system: OVCAR-4 ovarian
[24] = test system: HCC-2998 colon
[25] = test system: T-47D breast
[26] = test system: HT29 colon
[27] = test system: MALME-3M melanoma
[28] = test system: DU-145 prostate
[29] = test system: SF-295 CNS
[30] = test system: EKVX NSCLC
[31] = test system: MDA-MB-435 melanoma
[32] = test system: MCF7 breast
[33] = test system: SF-268 CNS
[34] = test system: SK-OV-3 ovarian
[35] = test system: BT-549 breast
[36] = test system: NCI-H522 lung
[37] = test system: SR leukemia
[38] = test system: COLO 205 colon
[39] = test system: SK-MEL-5 melanoma
[40] = test system: TK-10 renal
[41] = test system: SNB-75 CNS
[42] = test system: HOP-62 NSCLC
[43] = test system: MOLT-4 leukemia
[44] = test system: OVCAR-8 ovarian
[45] = test system: 786-0 renal
[46] = test system: UACC-257 melanoma
[47] = test system: PC-3 prostate
[48] = test system: RXF 393 renal
[49] = test system: SK-MEL-2 melanoma
[50] = test system: OVCAR-5 ovarian
[51] = test system: SF-539 CNS
[52] = test system: NCI-H226 lung
[53] = test system: HL-60(TB) leukemia
[54] = test system: MDA-MB-231 breast
[55] = test system: CAKI-1 renal
[56] = test system: A498 renal

## C/C=C/C/C=C/CCC(=O)[C@H]1O[C@H]1C(N)=O
[1]
  GI50: 16.9 µM
  TGI: 30.7 µM
[2]
  GI50: 2.17 µM
  TGI: 4.86 µM
[3]
  GI50: 17.8 µM
  TGI: 31.9 µM
[4]
  GI50: 8.38 µM
  TGI: 21 µM
[5]
  GI50: 13.4 µM
  TGI: 26.4 µM
[6]
  GI50: 16.3 µM
  TGI: 30.2 µM
[7]
  GI50: 14.1 µM
  TGI: 28.2 µM
[8]
  GI50: 15.4 µM
  TGI: 31.1 µM
[9]
  GI50: 13 µM
  TGI: 26.1 µM
[10]
  GI50: 2.82 µM
  TGI: 6.86 µM
[11]
  GI50: 6.61 µM
  TGI: 19.6 µM
[12]
  GI50: 3.26 µM
  TGI: 11.3 µM
[13]
  GI50: 16.6 µM
  TGI: 30.4 µM
[14]
  GI50: 12.3 µM
  TGI: 24.8 µM
[15]
  GI50: 12.3 µM
  TGI: 25 µM
[16]
  GI50: 12.8 µM
  TGI: 27.1 µM
[17]
  GI50: 3.72 µM
  TGI: 12.7 µM
[18]
  GI50: 14.6 µM
  TGI: 28.8 µM
[19]
  GI50: 12.2 µM
  TGI: 25 µM
[20]
  GI50: 11.7 µM
  TGI: 24.7 µM
[21]
  GI50: 14 µM
  TGI: 27.3 µM
[22]
  GI50: 11.5 µM
  TGI: 23.9 µM
[23]
  GI50: 3.76 µM
  TGI: 15.6 µM
[24]
  GI50: 12.7 µM
  TGI: 25.3 µM
[25]
  GI50: 5.89 µM
  TGI: 17.6 µM
[26]
  GI50: 18.1 µM
  TGI: 32.7 µM
[27]
  GI50: 12.7 µM
  TGI: 25.3 µM
[28]
  GI50: 12.7 µM
  TGI: 25.4 µM
[29]
  GI50: 11.9 µM
  TGI: 24.6 µM
[30]
  GI50: 6.48 µM
  TGI: 18.9 µM
[31]
  GI50: 16 µM
  TGI: 30 µM
[32]
  GI50: 5.89 µM
  TGI: 18.4 µM
[33]
  GI50: 14.9 µM
  TGI: 30 µM
[34]
  GI50: 16.7 µM
  TGI: 33.2 µM
[35]
  GI50: 3.21 µM
  TGI: 12.8 µM
[36]
  GI50: 3.29 µM
  TGI: 11.3 µM
[37]
  GI50: 2.21 µM
  TGI: 4.91 µM
[38]
  GI50: 21 µM
  TGI: 35.4 µM
[39]
  GI50: 7.25 µM
  TGI: 19.8 µM
[40]
  GI50: 18.1 µM
  TGI: 32.1 µM
[41]
  GI50: 2.19 µM
  TGI: 7.15 µM
[42]
  GI50: 1.34 µM
  TGI: 5.19 µM
[43]
  GI50: 4.91 µM
  TGI: 16.9 µM
[44]
  GI50: 14.2 µM
  TGI: 27.7 µM
[45]
  GI50: 14.4 µM
  TGI: 28.2 µM
[46]
  GI50: 3.27 µM
  TGI: 9.64 µM
[47]
  GI50: 11.1 µM
  TGI: 23.4 µM
[48]
  GI50: 0.407 µM
  TGI: 3.86 µM
[49]
  GI50: 8.59 µM
  TGI: 20.3 µM
[50]
  GI50: 17.6 µM
  TGI: 33.2 µM
[51]
  GI50: 13.8 µM
  TGI: 27.5 µM
[52]
  GI50: 7.61 µM
  TGI: 19.7 µM
[53]
  GI50: 7.3 µM
  TGI: 19.3 µM
[54]
  GI50: 11.6 µM
  TGI: 24.5 µM
[55]
  GI50: 14 µM
  TGI: 27 µM
[56]
  GI50: 17.7 µM
  TGI: 31.7 µM
